Source: patent US20240349725A1, “FORMULATION COMPRISING AN ACID FUNCTION ACTIVE INGREDIENT, ESTER FUNCTION ACTIVE INGREDIENT AND SALT AND/OR CHEMICALLY LABILE ACTIVE INGREDIENT, THE USE THEREOF AND METHOD OF PRODUCTION” (Iharabrás S.A. Indústrias Químicas, priority 2021, published 2024)

Assay: In-house compatibility observations of the actives with acids / 2,4-D amine salt solution
Format: physicochemical
From the text: Secondary amine salt formulations diethanolamine, diisopropanolamine) of 2,4-D and other herbicides containing a carboxylic acid function (2,4,5-T, ticlopyr, dicamba, picloram, aminopyralid, others) are extremely hydrophilic, being normally conveyed as a concentrated aqueous solution of high pH to avoid crystallization of the salt/free acid. […] As discussed, these active ingredients have physical-chemical features that make it difficult for them to be used together in the same formulation. In addition to this is the easy decomposition through base-catalyzed hydrolysis, of active ingredients containing the ester function, such as lactofen, if they were soluble or emulsified in an alkaline solution, as is the case of the aqueous solution of amine salts of 2,4-D. This effect was observed when lactofen was dissolved in a naphthenic organic solvent and then emulsified in a solution of 2,4-D dimethylamine salt. Shortly afterwards, lactofen had been decomposed even under mild temperature conditions, which made it impossible to provide this mixture under these conditions as a commercial product. It is also mentioned that, although the degradation kinetics may be different, compounds containing an ester group, such as lactofen, can also undergo solvolysis (hydrolysis if the solvent is water) in the presence of acids, which makes it impossible for lactofen to be transported with 2,4-D without neutralization of the latter by an alkaline compound. Bispyribac sodium is also a compound that easily degrades under different conditions. […] Bispyribac sodium is also known to only remain stable at pH levels close to neutral or slightly alkaline (7 to 9) and at temperatures around 25° C. and in the dark, with an acceleration of degradation under conditions other than these. These features of lactofen and bispyribac sodium make it difficult for one to develop formulations with other active ingredients, which may justify the absence of commercial products with these associated active ingredients.

Row | SMILES | decomposition when emulsified in a solution of 2,4-D dimethylamine salt (dissolved in naphthenic organic solvent, emulsified in 2,4-D dimethylamine salt solution, mild temperature) | degradation in the presence of acids (even in the absence of water, observed internally) | degradation in the presence of unneutralized 2,4-D (high acidity of 2,4-D)
1 | CCOC(=O)C(C)OC(=O)c1cc(Oc2ccc(C(F)(F)F)cc2Cl)ccc1[N+](=O)[O-] (stereo not drawn) [Lactofen, lactofen] | decomposed | – | –
2 | COc1cc(OC)nc(Oc2cccc(Oc3nc(OC)cc(OC)n3)c2C(=O)O)n1 [Bispyribac sodium, bispyribac sodium] | – | degrades easily | fully degraded
